Assays:
[1] = molecular target: T1, PAI-1 (Homo sapiens, UniProt P05121); test: Measurement of PAI-1 inhibitory activity (t-PA / chromogenic substrate S-2288); settings: statement in words referring to the test example (compound at 20 μM or 50 μM); numeric PAI-1 activities (%) only in FIGS. 1 to 7
Experimental: The change in PAI-1 activity can be examined by setting, as an index, a reaction product produced by the action of t-PA on a substrate. […] It can be judged that when the amount of reaction product is larger, the PAI-1 inhibitory action is higher.
More specifically, human-derived PAI-1 was added to a 0.1% Tween 80-containing 100 mM Tris-HCl (pH 8) solution containing each of the above compounds in a given concentration (20 μM or 50 μM), and incubated at 37° C. for 15 minutes. Subsequently, human-derived tissue plasminogen activator (t-PA) (manufactured by American Diagnostica, Inc. (USA); the same applies hereinafter) adjusted to 0.3 pmol/μL, was added thereto, and further incubated at 37° C. for 15 minutes.

[2] = molecular target: T1, PAI-1; test: Reference Test Example (2) evaluation of fibrinolytic action (fibrin plate, mixture of PAI-1, t-PA and test compound); assay type: biochemical; design: purchased Molecular Innovations Inc. (USA); settings: room temperature, 18 hours
Experimental: The compounds a and b were evaluated for fibrinolytic action in accordance with the document (Matsuo, O. et al., Haemostasis, 16, 43-50 (1986)).
More specifically, an aqueous solution (containing 25 mM barbital-sodium, 50 mM NaCl, and 25 mM CaCl2) containing a concentration of 1.5 mg/mL of fibrinogen (produced by Organon Teknica) was added, on a 9 cm-plate, to thrombin dissolved in 0.2 mL of physiological saline (10NIH U/mL: produced by Mochida Pharmaceutical Co., Ltd.), and the mixture was allowed to stand at room temperature for 2 hours. Using this mixture, fibrinolysis assay was conducted.
Namely, a mixture of PAI-1, t-PA, and each of the test compounds was dropped onto the plate and incubated at room temperature for 18 hours. After the incubation, fibrinolysis due to plasminogen activation was measured from the lysis area on the plate.

[3] = molecular target: T1, PAI-1; test: Reference Test Example (1) PAI-1 inhibitory activity assay (t-PA / S-2288); assay type: biochemical; design: purchased Molecular Innovation(s) Inc. (USA); settings: concentrations of 35 μM and 50 μM; FIG. 8
Experimental: P-nitranilide removed from the chromogenic substrate (S-2288) by t-PA action was measured using a spectrophotometer at an absorbance of 405 nm at 5-minute intervals for 30 minutes.
Comparative tests were carried out in the same manner using, in place of the above test compounds, a compound (tiplaxtinin) of the formula below used as an antithrombotic drug in US clinical trials (provided that the given concentrations were 20, 35, and 50 μM).
FIGS. 8 (A), (B), and (C) each show PAI-1 activity (%) when the compound a (concentrations: 20, 35, and 50 μM), the compound b (concentrations: 20, 35, and 50 μM), and tiplaxtinin (comparative compound) (concentrations: 20, 35, and 50 μM) are added, respectively.

[4] = system: mouse model with pulmonary fibrosis artificially induced by bleomycin; test: Reference Test Example (3) effects on bleomycin-induced pulmonary fibrosis; assay type: in vivo, C57BL/6 mouse; settings: scored from 0 to 8 (method of Ashcort et al.); bleomycin + compound b 200 mg/kg p.o. twice/day for 14 days; FIG. 9
Experimental: A C57BL/6 mouse (male, body weight: 19 to 21 g) was intraperitoneally anesthetized with pentobarbital, and an incision was made on the cervical organ. Ten mice were used as controls. The control mice (n=10) were endotracheally administered bleomycin (produced by Nippon Kayaku Co., Ltd.) (1.5 U/kg) lysed in physiological saline, twice a day for 14 days. On the other hand, the test mice were subjected to forcible oral administration with the compound b (200 mg/kg), suspended in a 0.5% carboxymethyl cellulose aqueous solution, twice a day for 14 days, in addition to the above endotracheal administration. Then, the lung tissues taken from these control mice and the test mice were analyzed, and further assayed for hydroxyproline levels. The hydroxyproline levels in the lung tissues were assayed in terms of the level in the hydrolysate of the lung tissues as described in the method of Kivirikko et al. (Anal. Biochem. 19, 249-255 (1967)). The levels (severity) of pulmonary fibrosis were scored from 0 to 8, based on the method of Ashcort et al. (J. Clin. Pathol. 41, 467-470 (1988)). Further, the control mice and the test mice were assayed for plasma PAI-1 activity (ng/mL).

T1 sequence (P05121 24-402): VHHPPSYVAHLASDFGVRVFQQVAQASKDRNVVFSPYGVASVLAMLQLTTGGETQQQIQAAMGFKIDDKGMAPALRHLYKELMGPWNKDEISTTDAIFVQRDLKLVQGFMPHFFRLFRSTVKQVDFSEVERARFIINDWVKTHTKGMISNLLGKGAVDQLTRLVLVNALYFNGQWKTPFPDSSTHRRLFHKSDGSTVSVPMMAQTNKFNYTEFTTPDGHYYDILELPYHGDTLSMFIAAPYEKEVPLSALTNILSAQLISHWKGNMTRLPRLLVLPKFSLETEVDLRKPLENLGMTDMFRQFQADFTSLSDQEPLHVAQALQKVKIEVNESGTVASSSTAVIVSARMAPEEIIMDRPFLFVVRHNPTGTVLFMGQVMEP

Row | SMILES | inhibitory action on PAI-1 activity [1] | further results
1 | O=C(COCC(=O)Nc1ccc(Cl)cc1C(=O)O)Nc1ccc(-c2ccncc2)cc1 [Compound 1, 5-chloro-2-([(2-oxo-2-([4-(pyridin-4-yl)phenyl]amino)ethoxy)acetyl]amino)benzoic acid] | excellent inhibitory action on PAI-1 activity | –
2 | O=C(COCC(=O)Nc1ccc(Cl)cc1C(=O)O)Nc1cccc(-c2ccncc2)c1 [Compound 2, 5-chloro-2-([(2-oxo-2-([3-(pyridin-4-yl)phenyl]amino)ethoxy)acetyl]amino)benzoic acid] | excellent inhibitory action on PAI-1 activity | –
3 | O=C(COCC(=O)NC1CCCCCCCCCCC1)Nc1ccc(Cl)cc1C(=O)O [Compound 11, 5-chloro-2-(([2-(cyclododecylamino)-2-oxoethoxy]acetyl)amino)benzoic acid] | excellent inhibitory action on PAI-1 activity | –
4 | O=C(COCC(=O)N(c1ccccc1)C1CCCCC1)Nc1ccc(Cl)cc1C(=O)[O-].[Na+] [Compound 15, 5-chloro-2-[((2-[cyclohexyl(phenyl)amino]-2-oxoethoxy)acetyl)amino]benzoic acid.sodium salt] | excellent inhibitory action on PAI-1 activity | –
5 | Cc1ccc(-c2ccc(F)cc2)cc1NC(=O)C(=O)Nc1ccc(Cl)cc1C(=O)[O-].[Na+] [Compound 20, 5-chloro-2-(([(4′-fluoro-4-methylbiphenyl-3-yl)amino](oxo)acetyl)amino)benzoic acid.sodium salt] | excellent inhibitory action on PAI-1 activity | –
6 | CC(=O)Nc1ccc(-c2ccc(C)c(NC(=O)COCC(=O)Nc3ccc(Cl)cc3C(=O)O)c2)cc1 [Compound 44, 2-([(2-([4′-(acetylamino)-4-methylbiphenyl-3-yl]amino)-2-oxoethoxy)acetyl]amino)-5-chlorobenzoic acid] | excellent inhibitory action on PAI-1 activity | –
7 | O=C(COCC(=O)Nc1ccc(Cl)cc1C(=O)O)Nc1cccc(Cc2ccoc2)c1 [Compound 55, 5-chloro-2-([(2-([3-(furan-3-ylmethyl)phenyl]amino)-2-oxoethoxy)acetyl]amino)benzoic acid] | excellent inhibitory action on PAI-1 activity | –
8 | O=C(COCC(=O)Nc1ccc(Cl)cc1C(=O)O)Nc1cccc(-c2cccs2)c1 [Compound 63, 5-chloro-2-([(2-oxo-2-([3-(thiophen-2-yl)phenyl]amino)ethoxy)acetyl]amino)benzoic acid] | excellent inhibitory action on PAI-1 activity | –
9 | O=C(COCC(=O)Nc1ccc(Cl)cc1C(=O)O)Nc1ccc(-c2ccoc2)cc1 [Compound 64, 5-chloro-2-([(2-([4-(furan-3-yl)phenyl]amino)-2-oxoethoxy)acetyl]amino)benzoic acid] | excellent inhibitory action on PAI-1 activity | –
10 | CCC(CC(=O)Nc1scc(-c2ccccc2)c1C(=O)O)C(=O)Nc1scc(-c2ccccc2)c1C(=O)O (centres unmarked) [compound a, 2-[3-(3′-carboxy-4′-phenylthiophen-2′-ylcarbamoyl)-pentanoylamino]-4-phenylthiophen-3-carboxylic acid] | – | fibrinolytic action (lysis area on fibrin plate) [2]: inhibit fibrinolysis suppression caused by PAI-1; PAI-1 activity inhibitory action compared with tiplaxtinin [3]: higher PAI-1 activity inhibitory action at concentrations of 35 μM and 50 μM than tiplaxtinin
11 | CCC(CC(=O)Nc1scc(-c2cccs2)c1C(=O)O)C(=O)Nc1scc(-c2cccs2)c1C(=O)O (centres unmarked) [compound b, 2-[3-(3′-carboxy-4′-thienylthiophen-2′-ylcarbamoyl)-pentanoylamino]-4-thienylthiophen-3-carboxylic acid] | – | fibrosis score [4]: 2.9±0.42; fibrinolytic action (lysis area on fibrin plate) [2]: inhibit fibrinolysis suppression caused by PAI-1; PAI-1 activity inhibitory action compared with tiplaxtinin [3]: higher PAI-1 activity inhibitory action at concentrations of 35 μM and 50 μM than tiplaxtinin

From patent publication US8415479B2, “Inhibitor of plasminogen activator inhibitor-1” (Renascience Co., Ltd., priority 2008, dated 2013)
